The values that follow come from PubChem BioAssay AID256 (DTP/NCI, 2004).

Several values for one entry are separate records, joined by “and”; a condition that tells them apart may be missing. Identical values can stand only once. Toxic doses and inconclusive results are not listed.

This assay relates to CD2F1 mice, L1210 leukemia ip, survival T/C. Put plainly: NCI In Vivo Anticancer Drug Screen. Data for tumor model L1210 Leukemia (intraperitoneal) in CD2F1 (CDF1) mice. Particulars: higher = longer survival. The gist of the method: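 Vehicle-treated tumor-bearing mice served as controls (C) for compound-treated mice (T). Reported figure is T divided by C.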
The mark [1] stands for this setting: endpoint: mean survival time, dose: 100.0 mg/kg/injection, schedule: Q01DX009 (ip), vehicle: saline with Tween-80.
Where [2] appears, read: endpoint: mean survival time, dose: 200.0 mg/kg/injection, schedule: Q01DX009 (ip), vehicle: saline with Tween-80.
Setting [3] is: endpoint: mean survival time, dose: 400.0 mg/kg/injection, schedule: Q01DX009 (ip), vehicle: saline with Tween-80.
Where [4] appears, read: endpoint: mean survival time, dose: 100.0 mg/kg/injection, schedule: Q04DX003 (ip), vehicle: saline with Tween-80.
Where [5] appears, read: endpoint: mean survival time, dose: 200.0 mg/kg/injection, schedule: Q04DX003 (ip), vehicle: saline with Tween-80.
[6] abbreviates: endpoint: mean survival time, dose: 400.0 mg/kg/injection, schedule: Q04DX003 (ip), vehicle: saline with Tween-80.
The mark [7] stands for this setting: endpoint: mean survival time, dose: 100.0 mg/kg/injection, schedule: Q04DX002 (ip), vehicle: saline with Tween-80.
[8] abbreviates: endpoint: mean survival time, dose: 200.0 mg/kg/injection, schedule: Q04DX002 (ip), vehicle: saline with Tween-80.
Where [9] appears, read: endpoint: mean survival time, dose: 25.0 mg/kg/injection, schedule: Q01DX009 (ip), vehicle: saline with Tween-80.
[10] abbreviates: endpoint: mean survival time, dose: 50.0 mg/kg/injection, schedule: Q01DX009 (ip), vehicle: saline with Tween-80.
Setting [11] is: endpoint: mean survival time, dose: 400.0 mg/kg/injection, schedule: Q04DX002 (ip), vehicle: saline with Tween-80.
The mark [12] stands for this setting: endpoint: mean survival time, dose: 100.0 mg/kg/injection, schedule: Q04DX003 (ip), vehicle: saline.

On to `COC(=O)C1C2CC(=O)C(C2)C1C(=O)OC` (stereo not given), for which the T/C was 93 % of control under setting [1], 99 % of control under setting [2] and 93 % of control under setting [3].

As to `COc1cc2c3c(c1OC)C1(C=CC(=O)C=C1)CC3N(C(C)=O)CC2` (stereo not given), the T/C was 97 % of control under setting [4], 95 % of control under setting [5] and 94 % of control under setting [6].

Take `CS(=O)(=O)c1cnnc2ccccc12`: the T/C is, setting by setting: under setting [4], 98 % of control; under setting [5], 93 % of control; under setting [6], 86 % of control.

Take `O=S1(=O)OCCCC1=C(c1ccccc1)c1ccccc1`: the T/C is 102 % of control (endpoint: mean survival time, dose: 75.0 mg/kg/injection, schedule: Q01DX009 (ip), vehicle: saline); 101 % of control (endpoint: mean survival time, dose: 75.0 mg/kg/injection, schedule: Q04DX003 (ip), vehicle: saline); 97 % of control (endpoint: mean survival time, dose: 150.0 mg/kg/injection, schedule: Q01DX009 (ip), vehicle: saline); 94 % of control (endpoint: mean survival time, dose: 150.0 mg/kg/injection, schedule: Q04DX003 (ip), vehicle: saline); 97 % of control (endpoint: mean survival time, dose: 300.0 mg/kg/injection, schedule: Q01DX009 (ip), vehicle: saline); 97 % of control (endpoint: mean survival time, dose: 300.0 mg/kg/injection, schedule: Q04DX003 (ip), vehicle: saline).

With `O=C(/C=C/c1ccncc1)c1ccccc1`, the T/C is, setting by setting: under setting [1], 92 % of control; under setting [4], 89 % of control; under setting [2], 89 % of control; under setting [5], 89 % of control; under setting [3], 91 % of control; under setting [6], 95 % of control.

With `O=C(Nc1ccccc1)Nc1ccc(Cl)c(Cl)c1`, the T/C is, setting by setting: (endpoint: mean survival time, dose: 100.0 mg/kg/injection, schedule: Q04DX003 (ip), vehicle: acetone) 98 % of control; (endpoint: mean survival time, dose: 200.0 mg/kg/injection, schedule: Q04DX003 (ip), vehicle: acetone) 101 % of control; (endpoint: mean survival time, dose: 400.0 mg/kg/injection, schedule: Q04DX003 (ip), vehicle: acetone) 106 % of control.

With `CN=NC(C)C`, under setting [2], the T/C was 113 % of control.

Regarding `C=C(C)c1ccc(C)c(C)c1`, the T/C runs as follows: under setting [1], 93 % of control; under setting [2], 98 % of control; under setting [3], 114 % of control.

On to `[N-]=[N+]=CC(=O)NCC(=O)N/N=C/c1ccccn1`, for which the T/C reads like this: (endpoint: mean survival time, dose: 100.0 mg/kg/injection, schedule: Q01DX009 (ip), vehicle: saline sonified) 104 % of control; under setting [4], 97 % of control; (endpoint: mean survival time, dose: 200.0 mg/kg/injection, schedule: Q01DX009 (ip), vehicle: saline sonified) 104 % of control; under setting [5], 98 % of control; (endpoint: mean survival time, dose: 400.0 mg/kg/injection, schedule: Q01DX009 (ip), vehicle: saline sonified) 97 % of control; under setting [6], 94 % of control.

In the case of `C[n+]1nc(-c2ccccc2)oc1-c1ccccc1`, the T/C is 100 % of control (endpoint: mean survival time, dose: 25.0 mg/kg/injection, schedule: Q04DX002 (ip), vehicle: saline with Tween-80); 100 % of control (endpoint: mean survival time, dose: 50.0 mg/kg/injection, schedule: Q04DX002 (ip), vehicle: saline with Tween-80); 108 % of control under setting [7]; 106 % of control under setting [8].

`O=Cc1c(O)c2ccccc2[nH]c1=O`: the T/C was 101 % of control (endpoint: mean survival time, dose: 6.25 mg/kg/injection, schedule: Q01DX009 (ip), vehicle: saline with Tween-80); 103 % of control (endpoint: mean survival time, dose: 12.5 mg/kg/injection, schedule: Q01DX009 (ip), vehicle: saline with Tween-80); 103 % of control under setting [9]; 112 % of control under setting [10]; 106 % of control under setting [1]; 98 % of control (endpoint: median survival time, dose: 12.0 mg/kg/injection, schedule: Q01DX009 (ip), vehicle: Klucel (hydroxypropylcellulose) (HPC)). Also, the T/C is 105 % of control (endpoint: median survival time, dose: 25.0 mg/kg/injection, schedule: Q01DX009 (ip), vehicle: Klucel (hydroxypropylcellulose) (HPC)); 113 % of control (endpoint: median survival time, dose: 50.0 mg/kg/injection, schedule: Q01DX009 (ip), vehicle: Klucel (hydroxypropylcellulose) (HPC)); 104 % of control (endpoint: median survival time, dose: 100.0 mg/kg/injection, schedule: Q01DX009 (ip), vehicle: Klucel (hydroxypropylcellulose) (HPC)).

For the compound `CCCCCCCCCN=C(N)CSSCC(N)=NCCCCCCCCC`, the T/C by setting is: (endpoint: mean survival time, dose: 12.5 mg/kg/injection, schedule: Q01DX001 (ip), vehicle: Klucel (hydroxypropylcellulose) (HPC)) 94 % of control; (endpoint: mean survival time, dose: 25.0 mg/kg/injection, schedule: Q01DX001 (ip), vehicle: Klucel (hydroxypropylcellulose) (HPC)) 101 % of control.

Consider `CCCCCCCCC(=O)N(C)OC`, for which the T/C is, setting by setting: under setting [10], 102 % of control; under setting [1], 104 % of control.

Take `CC(=O)c1ccc(CCCCCCCC(=O)O)o1`: the T/C is 97 % of control (endpoint: mean survival time, dose: 50.0 mg/kg/injection, schedule: Q01DX001 (ip), vehicle: Klucel (hydroxypropylcellulose) (HPC)); 101 % of control (endpoint: mean survival time, dose: 100.0 mg/kg/injection, schedule: Q01DX001 (ip), vehicle: Klucel (hydroxypropylcellulose) (HPC)); 94 % of control (endpoint: mean survival time, dose: 200.0 mg/kg/injection, schedule: Q01DX001 (ip), vehicle: Klucel (hydroxypropylcellulose) (HPC)).

As to `Nc1nc2c(ncn2CCCCc2ccccc2)c(=O)[nH]1`, the T/C is 94 % of control under setting [7], 94 % of control under setting [8] and 94 % of control under setting [11].

With `[NH2-].[NH2-].[NH2-].[NH2-].[Pt+4]`, the T/C by setting is: under setting [9], 92 % of control; under setting [12], 98 % of control.

As for `COc1ccc2[nH]c3ccc4cc[n+](CCN5CCC(C6CCN(CC[n+]7ccc8ccc9[nH]c%10ccc(OC)cc%10c9c8c7)CC6)CC5)cc4c3c2c1`, the T/C was 172 % of control and 246 % of control (endpoint: median survival time, dose: 8.0 mg/kg/injection, schedule: Q01DX009 (ip), vehicle: water); 160 % of control and 185 % of control (endpoint: median survival time, dose: 16.0 mg/kg/injection, schedule: Q01DX009 (ip), vehicle: water); 172 % of control (endpoint: median survival time, dose: 16.25 mg/kg/injection, schedule: Q01DX009 (ip), vehicle: water); 119 % of control (endpoint: median survival time, dose: 32.0 mg/kg/injection, schedule: Q01DX009 (ip), vehicle: water); 197 % of control (endpoint: median survival time, dose: 32.5 mg/kg/injection, schedule: Q01DX009 (ip), vehicle: water); 91 % of control and 102 % of control (endpoint: median survival time, dose: 200.0 mg/kg/injection, schedule: Q01DX009 (ip), vehicle: Klucel (hydroxypropylcellulose) (HPC)).

On to `COc1ccc2c(c1)CCC1C(=O)NN=C21` (stereo not given), for which the T/C under setting [7] is 103 % of control, the T/C under setting [8] was 103 % of control and the T/C under setting [11] is 103 % of control.

Take `O=C(c1ccccc1)C(c1ccccc1)C(SCc1ccccc1)c1ccccc1` (stereo not given): the T/C (endpoint: mean survival time, dose: 100.0 mg/kg/injection, schedule: Q01DX001 (ip), vehicle: saline with Tween-80) is 88 % of control; the T/C under setting [1] is 94 % of control; the T/C (endpoint: mean survival time, dose: 200.0 mg/kg/injection, schedule: Q01DX001 (ip), vehicle: saline with Tween-80) was 90 % of control; the T/C under setting [2] was 100 % of control; the T/C (endpoint: mean survival time, dose: 400.0 mg/kg/injection, schedule: Q01DX001 (ip), vehicle: saline with Tween-80) was 98 % of control; the T/C under setting [3] is 103 % of control.

`COC1OC(Nc2nc(SC)[nH]c(=O)c2C(C)=O)C(O)C(O)C1O` (stereo not given): the T/C was 98 % of control (endpoint: median survival time, dose: 12.5 mg/kg/injection, schedule: Q01DX005 (ip), vehicle: saline with Tween-80); 97 % of control (endpoint: median survival time, dose: 25.0 mg/kg/injection, schedule: Q01DX005 (ip), vehicle: saline with Tween-80); 94 % of control (endpoint: median survival time, dose: 50.0 mg/kg/injection, schedule: Q01DX005 (ip), vehicle: saline with Tween-80); 95 % of control (endpoint: median survival time, dose: 100.0 mg/kg/injection, schedule: Q01DX005 (ip), vehicle: saline with Tween-80); 97 % of control (endpoint: median survival time, dose: 200.0 mg/kg/injection, schedule: Q01DX005 (ip), vehicle: saline with Tween-80).

For `CC(C)(C)OC(=O)NCCCCC(N)C(=O)OC(C)(C)C` (stereo not given), the T/C under setting [12] was 96 % of control and the T/C (endpoint: mean survival time, dose: 200.0 mg/kg/injection, schedule: Q04DX003 (ip), vehicle: saline) was 93 % of control.

`COc1cccc(NC2=NCCO2)c1`: the T/C under setting [4] is 96 % of control and the T/C under setting [5] is 98 % of control.

Regarding `CC(CCc1ccccc1)NC(C)C(O)c1ccc(O)cc1` (stereo not given), the T/C is 102 % of control under setting [9], 96 % of control under setting [10], 102 % of control under setting [1] and 102 % of control under setting [4].

As to `O=C1C2CCN(CC2)C1CN1CCOCC1` (stereo not given), the T/C (endpoint: mean survival time, dose: 12.5 mg/kg/injection, schedule: Q04DX003 (ip), vehicle: saline) was 96 % of control; the T/C (endpoint: mean survival time, dose: 25.0 mg/kg/injection, schedule: Q04DX003 (ip), vehicle: saline) is 100 % of control; the T/C (endpoint: mean survival time, dose: 50.0 mg/kg/injection, schedule: Q04DX003 (ip), vehicle: saline) is 111 % of control.
